Experimental data published in patent publication US20110269812A1, “NOVEL BENZYLIDENE-INDOLINONE AND THEIR MEDICAL AND DIAGNOSTIC USES” (Agency for Science, Technology and Research, priority 2008, published 2011).
Like-named read-outs stand apart in the source and are kept apart here.

Assays:
THLE2 = test: Cell viability assay (Cell Titer-Glo), THLE2 normal hepatocyte cell line; format: cell-based; settings: Homo sapiens, read-out: IC50 THLE2
Protocol: (§1) Cells were plated at 5000-7000 cells/per well and incubated for 24 h before treatment. […] Cell Titer-Glo (Promega, Madison, Wis.) assay was performed according to manufacturer's instruction with luminescence detected on SpectraMax M5 (Molecular Devices, Sunnyvale, Calif.). Data was expressed as percentage of viability vs. vehicle-treated controls.
(§2) The anti-cancer potential of these compounds against HCC were tested using a phenotypic assay where compounds were screened over 100-fold concentration range (0.1 to 10 μM) using two representative liver cancer cell lines, HepG2 and HuH7. Additionally, THLE2 was employed as normal hepatocyte cell line to differentiate anti-cancer potential from non-specific cytotoxicities.
(§3) Cell viability assay shown in FIG. 2 was analyzed by Prism5 for the determination of respective IC50 values.

HepG2 = test: cells; format: cell-based, human; settings: for IC50 / viability at 10 µM: Homo sapiens; for IC50: read-out: IC50 HepG2; for viability at 10 µM: vs vehicle-treated controls, read-out: Percentage viability HepG2; for SR(HepG2/THLE2) safety ratio: percentage viability at 10 μM normalized with THLE2
Protocol: as §1, §2, §3
(§4) Cell viability was determined as described previous in Table 7. Percentage viability at 10 μM treatments was determined and safety ratios were calculated by normalizing survival in HCC cell lines to THLE2.

HuH7 = test: cells; format: cell-based, human; settings: for IC50 / viability at 10 µM: Homo sapiens; for IC50: read-out: IC50 HuH7; for viability at 10 µM: vs vehicle-treated controls, read-out: Percentage viability HuH7; for SR(HuH7/THLE2) safety ratio: percentage viability at 10 μM normalized with THLE2
Protocol: as §1, §2, §3, §4

CYP1A1 = test: 7-ethoxyresorufin O-deethylase (EROD) assay, CYP1A1 induction in Hepa1c1c7 cells; format: cell-based, murine
Protocol: Hepa1c1c7 cells were plated at a density of 10000 cells per well in a 96-well plate and cultured for 24 h. A stock solution of test compound was prepared in DMSO and serially diluted with medium to give the desired concentration in the well. The final concentration of DMSO was 0.5% v/v. The cells were incubated with test compound for 48 h, after which the medium was removed, the well washed with 200 μl of 1×phosphate-buffered saline solution (PBS) and then incubated with 5 μM 7-ethoxyresorufin and 2 mM salicylamide in 200 μl of medium at 37° C., 40 min. Readings were taken at λexcitation of 530 nm and λemission of 590 nm on a fluorometer. Fluorescence (if any) of the test compound was determined at the same wavelengths to take into account its contribution to the observed readings. Readings of empty wells (no cells, “blank”) and wells with Hepa1c1c7 cells in medium containing 0.5% DMSO but without test compound (“control”) were also determined. TCDD, a strong inducer of CYP1A1 activity, as well as BNF and sulforaphane were used as controls.
CYP1A1 induction activity was given by the expression:
Degree of induction=FCells+test compound−FBlank/FControl−FBlank
The EROD assay was used for this purpose (Burke, M. D.; Mayer, R. T., Drug Metab Dispos 1974, 2, 583). EROD activity describes the rate at which CYP1A1 caused the O-deethylation of 7-ethoxyresorufin to resorufm. […] This ratio was determined for compounds at concentrations that were approximately 4 times their CD values. A fixed concentration was not used here because it would be difficult to select this concentration in view of the large variation in NQO1 induction activities. The quotient of NQO1 and CYP1A1 induction ratios (ratio determined at the same concentration) was also obtained for each compound. Values >1 would imply greater induction of NQO1 relative to CYP1A1.

Hepa1c1c7 cells = test: MTT growth inhibition / cytotoxicity on Hepa1c1c7 cells; format: cell-based, murine; settings: Mus musculus, Hepa-1c1c7, 48 h, highest concentration tested 25 μM
Protocol: The antiproliferative activity of the compounds according to the invention was determined by the MTT assay on the following cell lines: MCF7 (human breast cancer cell line), HCT116 (human colon cancer cell line), and CCL186 (normal human diploid embryonic lung fibroblast). […] MCF7 and CCL186 cells were cultured in Eagle's Minimum Essential Medium (EMEM) with 1 mM sodium pyruvate, 1.5 g/L sodium bicarbonate, 2 mM L-glutamine supplemented with 10% FBS and 0.01% antibiotics. HCT116 cells were cultured in McCoy's 5A Medium with 2.2 g/L sodium bicarbonate supplemented with […] and 0.01% antibiotics. Cells were plated at the following densities: 10000 cells/well (MCF7), 4000 cells/well (HCT116), 5000 cells/well (CCL186). They were grown for 24 h in a 96-well plate, with 100 μl of corresponding medium in each well. The test compounds were prepared in DMSO and diluted to a series of concentrations with medium. Not more than 1% DMSO (final concentration) was present in each well. The test compounds were incubated with the cells for 72 h, after which 100 μl MTT solution (0.5 mg/ml in 1× PBS) was added for 3 h and the cells lysed to release the formazan product. The latter was dissolved in DMSO (150 μl) and absorbance determined within 30 min at 590 nm on a microtitre plate reader. Cell survival was given by the expression:
Cell survival (%)=[(Acells+test compound−Ablank)/(Auntreated cells−Ablank)]×100
where A is the absorbance of formazan measured at 590 nm in the test (Acells+test compound), control (Auntreated cells) or blank (Ablank) wells. Each concentration of test compound was evaluated on 3 separate occasions. […] The MTT assay was also carried out on Hepa1c1c7 cells for the purpose of determining cytotoxicity of test compounds. The same procedure was adopted except that the incubation period of compound with cells was 48 h, instead of 72 h.

NQO1 = test: Induction of NQO1 (QR) activity in Hepa1c1c7 cells
[1] = 1 μM, read off from plot of degree of induction versus concentration

Row | Compound | IC50 (THLE2; THLE-2, 72 h) | melting point | IC50 (HepG2; HepG2, 72 h) | viability at 10 µM (HepG2; HepG2, 72 h) | SR(HepG2/THLE2) safety ratio (HepG2) | IC50 (HuH7; Huh-7, 72 h) | viability at 10 µM (HuH7; Huh-7, 72 h) | SR(HuH7/THLE2) safety ratio (HuH7) | IC50 (Hepa1c1c7 cells) | CYP1A1 induction ratio (CYP1A1; 1 μM, 48 h) | NQO1 induction ratio (NQO1; [1]) | other results
1 | COc1cccc(/C=C2/C(=O)Nc3ccc(Cl)cc32)c1 [Compound 40, (E)-5-Chloro-3-(3-methoxybenzylidene)indolin-2-one] | > 10 µM | 212 to 214 °C | 9.2 µM | 46.1 ± 2.2% | 1.93 | > 10 µM | 57.5 ± 6.6% | 1.55 | 17.5 µM |  |  | CYP1A1 induction ratio (CYP1A1; 2.5 μM, 48 h): 1.32 ± 0.08; NQO1 induction ratio (NQO1; 2.5 μM, read off from plot): 4.34; NQO1/CYP1A1 Quotient (NQO1; both ratios at 2.5 μM): 3.29
2 | COc1ccc(/C=C2/C(=O)Nc3cc(Cl)ccc32)cc1O [Compound 44, (E)-6-Chloro-3-(3-hydroxy-4-methoxybenzylidene)indolin-2-one] | > 10 µM | 220 to 223 °C | 1 µM | 15 ± 1.3% | 5.72 | > 10 µM | 63 ± 4% | 1.36 | > 25 µM | 2.33 ± 0.13 | 5.09 | NQO1/CYP1A1 Quotient (NQO1; both ratios at 1 μM): 2.18
3 | COc1cccc(/C=C2/C(=O)Nc3cc(Cl)ccc32)c1 [Compound 41, (E)-6-Chloro-3-(3-methoxybenzylidene)indolin-2-one] | > 10 µM | 198 to 200 °C | 8.5 µM | 46.4 ± 2.5% | 1.90 | > 10 µM | 102 ± 6.9% | 0.87 | > 25 µM |  |  | CYP1A1 induction ratio (CYP1A1; 0.1 μM, 48 h): 1.51 ± 0.13; NQO1 induction ratio (NQO1; 0.1 μM, read off from plot): 2.56; NQO1/CYP1A1 Quotient (NQO1; both ratios at 0.1 μM): 1.70
4 | O=c1cc(-c2ccccc2)oc2ccc3ccccc3c12 [BNF, β-naphthoflavone, reference compound] |  |  |  |  |  |  |  |  |  |  |  | CYP1A1 induction ratio (CYP1A1; 0.01 μM, read off from a curve): 1.13; NQO1 induction ratio (NQO1; 0.01 μM): 1.83; NQO1/CYP1A1 Quotient (NQO1; both ratios at 0.01 μM): 1.62
5 | CCN(CC)CCNC(=O)c1c(C)[nH]c(/C=C2\C(=O)Nc3ccc(F)cc32)c1C [Sunitinib, reference compound] |  |  |  | 1.8 ± 0.3% |  |  | 3.4 ± 0.2% |  |  |  |  | IC50 (THLE2; THLE-2, viability (intracellular ATP, Cell Titer-Glo), 72 h, 0.1 to 10 μM, normal liver cell line): 4.5 µM; IC50 (HepG2; HepG2, viability (intracellular ATP, Cell Titer-Glo), 72 h, 0.1 to 10 μM): 4.5 µM; IC50 (HuH7; Huh-7, viability (intracellular ATP, Cell Titer-Glo), 72 h, 0.1 to 10 μM): 4.7 µM
6 | Clc1cc2c(cc1Cl)Oc1cc(Cl)c(Cl)cc1O2 [TCDD, 2,3,7,8-Tetrachlorodibenzo-p-dioxin, reference compound] |  |  |  |  |  |  |  |  |  |  |  | CYP1A1 induction ratio (EROD assay) (CYP1A1; 1 nM): 2.99
7 | COc1ccc(/C=C2/C(=O)Nc3cc(F)ccc32)cc1O [Compound 43, (E)-6-Fluoro-3-(3-hydroxy-4-methoxybenzylidene)indolin-2-one] | > 10 µM | 225 to 227 °C | 1.2 µM | 28.3 ± 6.7% | 3.63 | > 10 µM | 84.1 ± 7.5% | 1.22 | 15.6 µM |  |  | CYP1A1 induction ratio (CYP1A1; 0.5 μM, 48 h): 2.05 ± 0.07; NQO1 induction ratio (NQO1; 0.5 μM, read off from plot): 4.10; NQO1/CYP1A1 Quotient (NQO1; both ratios at 0.5 μM): 2.00
8 | C[S+]([O-])CCCCN=C=S (centres unmarked) [sulforaphane, reference compound] |  |  |  |  |  |  |  |  |  | 0.924 | 3.89 | 
9 | COc1cccc(/C=C2/C(=O)Nc3cc(F)ccc32)c1 [Compound 39, (E)-6-Fluoro-3-(3-methoxybenzylidene)indolin-2-one] | > 10 µM | 169 to 170 °C | 7.6 µM | 40 ± 4.2% | 1.95 | > 10 µM | 65.8 ± 1.1% | 1.19 | 9.8 µM | 1.25 ± 0.06 | 3.21 | NQO1/CYP1A1 Quotient (NQO1; both ratios at 1 μM): 2.57
